The values that follow are results of earlier work, collected in PubChem BioAssay AID1259409 (Chemical Carcinogenesis Research Information System (CCRIS), 2018).

This data set relates to rodent chemically induced tumor inhibition, incidence and multiplicity. Kind of data set: CCRIS tumor inhibitor studies. To be noted: Dose [Inhibitor]: 0, Route [Inhibitor]: ORAL, Species: RAT, Promoter: NONE USED.

Consider `O=c1oc2c(O)c(O)cc3c(=O)oc4c(O)c(O)cc1c4c23`, for which the “tumour outcome (control, treated, inhibition, significance)” value is listed as 5/14 (36%), 1/12 (8%), 78%, not significant (Carcinogen: DIETHYLNITROSAMINE, 55-18-5, N-METHYLNITROSOUREA, 684-93-5, 1,2-DIMETHYLHYDRAZINE, 540-73-8, N-BUTYL-N-(4-HYDROXYB, Carcinogen: DIETHYLNITROSAMINE, 55-18-5, N-METHYLNITROSOUREA, 684-93-5, 1,2-DIMETHYLHYDRAZINE, 540-73-8, N-BUTYL-N-(4-HYDROXYB, 1% IN DIET FOR 32 WK BEGINNING POST CARCINOGEN TREATMENT (STUDY DURATION: 36 WK), Strain/Sex: F344/MALE, Target Tissue: Type of Lesion: SMALL INTESTINE: CARCINOMA, Dose [Carcinogen]: 100 MG/KG DEN ONCE, 20 MG/KG MNU 4 TIMES, 40 MG/KG DMH 4 TIMES, 0.05% BBN IN DRINKING WATER FOR 2 WK, 0.1% DHPN IN D, Dose [Carcinogen]: 100 MG/KG DEN ONCE, 20 MG/KG MNU 4 TIMES, 40 MG/KG DMH 4 TIMES, 0.05% BBN IN DRINKING WATER FOR 2 WK, 0.1% DHPN IN D); 7/14 (50%), 3/12 (25%), 50%, not significant (Carcinogen: DIETHYLNITROSAMINE, 55-18-5, N-METHYLNITROSOUREA, 684-93-5, 1,2-DIMETHYLHYDRAZINE, 540-73-8, N-BUTYL-N-(4-HYDROXYBU, Carcinogen: DIETHYLNITROSAMINE, 55-18-5, N-METHYLNITROSOUREA, 684-93-5, 1,2-DIMETHYLHYDRAZINE, 540-73-8, N-BUTYL-N-(4-HYDROXYBU, 1% IN DIET FOR 32 WK BEGINNING POST CARCINOGEN TREATMENT (STUDY DURATION: 36 WK), Strain/Sex: F344/MALE, Target Tissue: Type of Lesion: LARGE INTESTINE: ADENOMA, Dose [Carcinogen]: 100 MG/KG DEN ONCE, 20 MG/KG MNU 4 TIMES, 40 MG/KG DMH 4 TIMES, 0.05% BBN IN DRINKING WATER FOR 2 WK, 0.1% DHPN IN D, Dose [Carcinogen]: 100 MG/KG DEN ONCE, 20 MG/KG MNU 4 TIMES, 40 MG/KG DMH 4 TIMES, 0.05% BBN IN DRINKING WATER FOR 2 WK, 0.1% DHPN IN D); 6/14 (43%), 1/13 (8%), 81%, p<0.05 (Carcinogen: DIETHYLNITROSAMINE, 55-18-5, N-METHYLNITROSOUREA, 684-93-5, 1,2-DIMETHYLHYDRAZINE, 540-73-8, N-BUTYL-N-(4-HYDROXYBU, Carcinogen: DIETHYLNITROSAMINE, 55-18-5, N-METHYLNITROSOUREA, 684-93-5, 1,2-DIMETHYLHYDRAZINE, 540-73-8, N-BUTYL-N-(4-HYDROXYBU, 1% IN DIET FOR 32 WK BEGINNING POST CARCINOGEN TREATMENT (STUDY DURATION: 36 WK), Strain/Sex: F344/MALE, Target Tissue: Type of Lesion: LUNG: ADENOMA, Dose [Carcinogen]: 100 MG/KG DEN ONCE, 20 MG/KG MNU 4 TIMES, 40 MG/KG DMH 4 TIMES, 0.05% BBN IN DRINKING WATER FOR 2 WK, 0.1% IN DRINKI, Dose [Carcinogen]: 100 MG/KG DEN ONCE, 20 MG/KG MNU 4 TIMES, 40 MG/KG DMH 4 TIMES, 0.05% BBN IN DRINKING WATER FOR 2 WK, 0.1% IN DRINKI); 9/15 (60%), 0/15 (0%), 100%, p=0.00035 (Carcinogen: N-NITROQUINOLINE-1-OXIDE, 56-57-5, 400 PPM IN DIET FOR 7 WK BEGINNING 1 WK PRIOR TO START OF CARCINOGEN TREATMENT (STUDY DURATION: 32 WK), Strain/Sex: F344\MALE, Target Tissue: Type of Lesion: TONGUE: CARCINOMA, Dose [Carcinogen]: 20 PPM IN DRINKING WATER FOR 5 WK); 15/15 (100%), 15/15 (100%), 0%, not calculated (low dose carcinogen); 15/15 (100 (Carcinogen: N-NITROSOBENZYLMETHYLAMINE, 937-40-6, 0.4 G/KG IN DIET BEGINNING 2 WK PRIOR TO FIRST CARCINOGEN DOSE (STUDY DURATION: 27 WK), Strain/Sex: F-344/MALE, Target Tissue: Type of Lesion: ESOPHAGUS: TUMOR, Dose [Carcinogen]: 0.5, 1.25 MG/KG 1/WK FOR 18 WK). Besides, the outcome (Carcinogen: N-NITROSOBENZYLMETHYLAMINE, 937-40-6, 0.4 G/KG IN DIET BEGINNING 2 WK PRIOR TO FIRST CARCINOGEN DOSE (STUDY DURATION: 20 WK), Strain/Sex: F-344/MALE, Target Tissue: Type of Lesion: ESOPHAGUS: TUMOR, Dose [Carcinogen]: 0.5, 1.25 MG/KG 1/WK FOR 18 WK) is on record as 15/15 (100%), 14/15 (93%), 7%, not calculated (low dose carcinogen); 15/15 (100%.
